Source: ChEMBL document CHEMBL1201862, “PubChem BioAssay data set” (2004)
The source made the active and inactive calls.

How the values were obtained:
[1] = target: T1, Polyadenylate-binding protein 1 (Homo sapiens, UniProt P11940); test: PABP1 MLLE–PAM2 interaction inhibitors, dose response, miRNA deadenylation inhibitor project, biochemical, fluorescence polarization, Cy5-PAM2 peptide, secondary (AID 602260); type: functional; conditions: read-out: IC50_Mean
[2] = target: T1, Polyadenylate-binding protein 1; test: PABP1 MLLE–PAM2 binding inhibitor potency, dose response, biochemical, fluorescence polarization, FITC-PAM2 peptide (AID 602259); type: functional; conditions: read-out: IC50_Mean
[3] = growth suppression of PTEN-null colon cells, dose response, cell-based, HCT116 PTEN knockout (AID 1047); type: functional;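 note: HCT116 colon tumor cells with PTEN knocked out; cells exposed to compound for 60 hours before readout; potency for loss of cell viability measured by luminescence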
[4] = growth suppression of beta-catenin-knockout colon cells, dose response, cell-based, HCT116, human colon tumor (AID 1045); type: functional;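 note: HCT116 colon tumor cells with beta catenin knocked out; cells exposed to compound for 60 hours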
[5] = target: T2, Ubiquitin-conjugating enzyme E2 N (Homo sapiens, UniProt P61088); type: functional;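 note: Dose-response confirmation in a TR-FRET assay detecting UBC13-driven polyubiquitin chain formation, inhibition measured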
T2 sequence (P61088 whole entry): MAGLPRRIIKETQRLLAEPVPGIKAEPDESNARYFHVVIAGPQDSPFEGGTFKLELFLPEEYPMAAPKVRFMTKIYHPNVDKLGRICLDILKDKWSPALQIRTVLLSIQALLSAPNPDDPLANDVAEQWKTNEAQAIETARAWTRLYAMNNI

[6] = target: FAD-linked sulfhydryl oxidase ALR (Homo sapiens, UniProt P55789); test: inhibitors of human ALR sulfhydryl oxidase, dose response, biochemical, H2O2 detection, luminescence, cherry-pick (AID 493248)
Chain of FAD-linked sulfhydryl oxidase ALR (P55789 whole entry): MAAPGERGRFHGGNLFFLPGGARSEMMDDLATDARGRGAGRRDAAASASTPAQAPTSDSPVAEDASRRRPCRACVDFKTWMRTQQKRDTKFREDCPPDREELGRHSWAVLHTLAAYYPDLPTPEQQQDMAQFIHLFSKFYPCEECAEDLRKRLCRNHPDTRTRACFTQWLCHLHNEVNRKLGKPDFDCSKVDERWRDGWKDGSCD

[7] = tested on: Streptococcus sp. 'group A'; test: growth inhibition of control SK(-) GAS strain, dose response, counter-screen for streptokinase expression inhibitor project, luminescence, kanamycin, BacTiterGlo, confirmation (AID 1900); type: functional, organism-based
BJ [8] = test: cytotoxicity toward BJ-TERT fibroblasts, dose response, cell-based, RAS-independent, luminescence (AID 1933); type: functional; conditions: Homo sapiens
Streptokinase A = target: T3, Streptokinase A (Streptococcus pyogenes serotype M1, UniProt P10520); test: S. pyogenes streptokinase expression inhibitors, potency, dose response, plasminogen activation absorbance, OD405 (AID 1914); type: functional, Streptococcus pyogenes M1 GAS;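 note: secreted streptokinase activity via plasminogen activation per viability signal from cell pellet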
T3 sequence (P10520 whole entry): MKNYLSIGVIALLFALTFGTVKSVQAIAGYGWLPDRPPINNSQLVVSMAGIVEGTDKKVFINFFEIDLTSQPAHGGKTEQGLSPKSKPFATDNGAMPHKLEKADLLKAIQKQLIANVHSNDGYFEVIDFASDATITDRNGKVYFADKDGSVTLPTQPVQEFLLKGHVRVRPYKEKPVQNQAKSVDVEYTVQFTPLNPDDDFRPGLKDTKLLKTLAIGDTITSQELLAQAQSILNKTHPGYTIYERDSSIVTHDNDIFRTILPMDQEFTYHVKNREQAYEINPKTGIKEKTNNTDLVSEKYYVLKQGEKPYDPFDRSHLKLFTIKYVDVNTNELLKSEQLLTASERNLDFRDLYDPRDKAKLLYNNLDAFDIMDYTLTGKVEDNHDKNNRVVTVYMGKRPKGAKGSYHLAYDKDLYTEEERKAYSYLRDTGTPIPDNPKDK

BJ [9] = test: cells; type: functional, cell-based; conditions: Homo sapiens
[10] = inhibitors of intracellular T. cruzi replication, confirmation, NIH3T3 host cells, beta-gal luminescence (AID 2044); type: functional, cell-based;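 note: intracellular parasites grown in NIH/3T3 mouse fibroblasts as host cells; luminescent beta-galactosidase reporter signal from transgenic T. cruzi replicating inside host cells; inhibitors lower the luminescence signal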
[11] = cytotoxicity toward NIH3T3 fibroblasts, dose response, counter-screen, cell-based, ATP luminescence, mouse fibroblasts (AID 2010); type: functional;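 note: cells exposed to compound for about 90 hours before reading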
BJ [12] = test: cytotoxicity toward BJ-TERT-LT-ST fibroblasts, dose response, cell-based, RAS-independent, luminescence (AID 1935); type: functional; conditions: Homo sapiens;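 note: BJ fibroblasts immortalized with TERT plus LT and ST oncogenes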
[13] = cytotoxicity toward DRD oncogenic fibroblasts, dose response, cell-based, non-viral oncogenic, luminescence (AID 1934); type: functional; conditions: Homo sapiens
Streptococcus = test: Group A Streptococcus viability loss, dose response, counter-screen for streptokinase expression inhibitor project, luminescence, BacTiterGlo (AID 1915); type: functional, organism-based;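 note: potency for reduction of bacterial viability or growth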
[14] = control 3'UTR Renilla luciferase suppression, dose response, counter-screen for Shn3 inhibitor project, cell-based, Clone20-Shn3RL, cherry-picked (AID 624133); type: functional
[15] = intracellular Trypanosoma cruzi inhibitors in host cells – cell-based, plate reader, cherry-pick samples, set 3, dose response (AID 651818); type: functional;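 note: compounds incubated with infected cells for about four days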
Genome polyprotein = Genome polyprotein (dengue virus type 2, UniProt P29990); test: Dengue-2 NS5 methyltransferase inhibitors, primary screen, biochemical, confirmation dose response (AID 588689); type: functional
Chain of Genome polyprotein (P29990 2492-3391 limits assumed): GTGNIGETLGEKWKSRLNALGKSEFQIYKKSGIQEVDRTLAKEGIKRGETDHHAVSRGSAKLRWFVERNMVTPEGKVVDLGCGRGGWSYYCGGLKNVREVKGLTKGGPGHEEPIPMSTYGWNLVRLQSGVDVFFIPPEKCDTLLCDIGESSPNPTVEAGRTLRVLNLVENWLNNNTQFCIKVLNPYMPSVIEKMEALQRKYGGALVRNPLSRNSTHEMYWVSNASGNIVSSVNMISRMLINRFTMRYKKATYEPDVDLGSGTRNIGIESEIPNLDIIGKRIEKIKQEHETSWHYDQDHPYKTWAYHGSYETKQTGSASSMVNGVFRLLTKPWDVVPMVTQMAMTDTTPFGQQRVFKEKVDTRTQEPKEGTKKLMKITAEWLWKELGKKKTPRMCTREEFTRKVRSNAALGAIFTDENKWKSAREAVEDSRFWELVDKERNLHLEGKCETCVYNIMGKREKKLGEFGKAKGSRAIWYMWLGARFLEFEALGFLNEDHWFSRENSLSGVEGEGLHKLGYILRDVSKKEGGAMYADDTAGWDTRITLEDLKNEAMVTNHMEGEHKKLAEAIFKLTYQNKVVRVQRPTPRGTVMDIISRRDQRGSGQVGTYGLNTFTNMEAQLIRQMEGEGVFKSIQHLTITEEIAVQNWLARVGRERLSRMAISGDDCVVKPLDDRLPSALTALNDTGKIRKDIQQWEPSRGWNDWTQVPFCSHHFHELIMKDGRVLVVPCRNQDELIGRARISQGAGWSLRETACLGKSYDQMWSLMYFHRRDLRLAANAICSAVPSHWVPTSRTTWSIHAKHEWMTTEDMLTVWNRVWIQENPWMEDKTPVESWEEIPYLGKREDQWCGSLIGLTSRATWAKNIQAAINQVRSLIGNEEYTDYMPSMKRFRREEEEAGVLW

T1 sequence (P11940 whole entry): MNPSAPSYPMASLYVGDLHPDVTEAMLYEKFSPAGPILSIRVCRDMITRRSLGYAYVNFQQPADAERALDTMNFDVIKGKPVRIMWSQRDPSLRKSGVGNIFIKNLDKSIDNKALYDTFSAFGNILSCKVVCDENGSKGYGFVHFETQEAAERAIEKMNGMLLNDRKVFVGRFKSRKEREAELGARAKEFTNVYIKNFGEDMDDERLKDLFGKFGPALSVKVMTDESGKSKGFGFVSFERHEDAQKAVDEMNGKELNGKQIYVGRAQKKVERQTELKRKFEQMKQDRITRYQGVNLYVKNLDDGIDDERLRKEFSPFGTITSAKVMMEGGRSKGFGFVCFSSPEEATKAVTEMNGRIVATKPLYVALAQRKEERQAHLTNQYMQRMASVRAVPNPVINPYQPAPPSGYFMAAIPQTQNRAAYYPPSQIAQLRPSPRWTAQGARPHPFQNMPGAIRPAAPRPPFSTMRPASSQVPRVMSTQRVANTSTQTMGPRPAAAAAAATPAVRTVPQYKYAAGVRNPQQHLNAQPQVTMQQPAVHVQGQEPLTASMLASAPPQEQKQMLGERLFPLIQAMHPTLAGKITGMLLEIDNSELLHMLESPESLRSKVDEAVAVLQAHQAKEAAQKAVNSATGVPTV

## Cc1noc(C)c1-c1csc(N2CCC(C(N)=O)CC2)n1
[1]
  IC50: > 66 µM (inactive)
[2]
  IC50: > 66 µM (inactive)

## CN1CCN(c2ccc(S(=O)(=O)N3CCCCC3)cc2NC(=O)c2ccc3ccccc3c2)CC1
[3]
  EC50: 16 µM (active)
[4]
  EC50: 17.8 µM (active)
[5]
  IC50: > 20 µM (inactive)

## C/C(=N\NC(=O)CN1CCN(S(=O)(=O)c2ccc(C)cc2)CC1)c1ccc(O)cc1
[6]
  AC50: 2.92 µM (active)

## O=C(C1CCCC1)N1CCN=C1SCc1cccc([N+](=O)[O-])c1
[6]
  AC50: 0.032 µM (active)

## COC(=O)c1c(NC(=O)COc2ccc(Cl)cc2)sc2c1CC(C)(C)NC2(C)C
[7]
  EC50: 11.6 µM (active)
BJ [8]
  EC50: 4.44 µM (active)
Streptokinase A
  EC50: 23.7 µM (active)
BJ [9]
  EC50: 11.7 µM (active)
[10]
  EC50: 1.54 µM (active)
[11]
  EC50: 10.4 µM (active)
BJ [12]
  EC50: 5.75 µM (inconclusive)
[13]
  EC50: 5.85 µM (active)
Streptococcus
  EC50: > 150 µM (not active)

## Nc1cc(O)nc(SCC(=O)Nc2cccc([N+](=O)[O-])c2)n1
[14]
  AC50: 27.7 µM (active)

## C[C@H](CO)N1C[C@H](C)[C@@H](CN(C)Cc2ccc(C(=O)Nc3ccccc3N)cc2)Oc2c(NC(=O)C3CC3)cccc2C1=O
[15]
  AC50: 1.13 µM (active)

## C[C@H](CO)N1C[C@H](C)[C@H](CN(C)Cc2ccc(C(F)(F)F)cc2)Oc2c(NC(=O)Nc3ccc(C(F)(F)F)cc3)cccc2C1=O
[15]
  AC50: 4.77 µM (active)

## COc1ccc(/C=C2/SC(=S)N(NS(=O)(=O)c3ccc(C)cc3)C2=O)cc1
Genome polyprotein
  IC50: 56.9 µM (active)

## C[C@H]1CN([C@@H](C)CO)C(=O)c2cc(NC(=O)Cc3cn(C)c4ccccc34)ccc2O[C@H]1CN(C)S(=O)(=O)c1ccc(Cl)cc1
[15]
  AC50: 2.81 µM (active)

## O=C(c1ccc(NC(=O)C(c2ccccc2)c2ccccc2)cc1)c1ccc(C(=O)O)c(C(=O)O)c1
Genome polyprotein
  IC50: 57.6 µM (active)

## Cn1cccc1/C=N/n1c(S)nnc1-c1ccc(Cl)cc1Cl
[6]
  AC50: 1.07 µM (active)
